From patent US8835409B2, “3-alkenyl-6-halo-4-aminopicolinates and their use as herbicides” (Dow AgroSciences, LLC., priority 2011, dated 2014)

Tests used:
[1] = test system: Chenopodium album (lambsquarters); experiment: Postemergence herbicidal activity, visual % control; type: in vivo; conditions: post-emergence, 336 h, post-emergent, after 14 days, 0 = no injury, 100 = complete kill, read-out: % Control CHEAL; for pest or weed control at 140 g/ha: 140 g ai/ha; for pest or weed control at 280 g/ha: 280 g ai/ha
Procedure: (§1) Seeds or nutlets of the desired test plant species were planted in Sun Gro MetroMix® 306 planting mixture, which typically has a pH of 6.0 to 6.8 and an organic matter content of about 30 percent, in plastic pots with a surface area of 64 square centimeters. When required to ensure good germination and healthy plants, a fungicide treatment and/or other chemical or physical treatment was applied. The plants were grown for 7-21 days in a greenhouse with an approximate 15 hour photoperiod which was maintained at about 23-29° C. during the day and 22-28° C. during the night. Nutrients and water were added on a regular basis and supplemental lighting was provided with overhead metal halide 1000-Watt lamps as necessary. The plants were employed for testing when they reached the first or second true leaf stage.
(§2) A weighed amount, determined by the highest rate to be tested, of each test compound was placed in a 25 mL glass vial and was dissolved in 4 mL of a 97:3 v/v (volume/volume) mixture of acetone and dimethyl sulfoxide (DMSO) to obtain concentrated stock solutions. […] The concentrated stock solutions obtained were diluted with 20 mL of an aqueous mixture containing acetone, water, isopropyl alcohol, DMSO, Atplus 411F crop oil concentrate, and Triton® X-155 surfactant in a 48.5:39:10:1.5:1.0:0.02 v/v ratio to obtain spray solutions containing the highest application rates. Additional application rates were obtained by serial dilution of 12 mL of the high rate solution into a solution containing 2 mL of 97:3 (v/v) mixture of acetone and dimethyl sulfoxide (DMSO) and 10 mL of an aqueous mixture containing acetone, water, isopropyl alcohol, DMSO, Atplus 411F crop oil concentrate, and Triton X-155 surfactant in a 48.5:39:10:1.5:1.0:0.02 (v/v) ratio to obtain ½X, ¼X, ⅛X and 1/16X rates of the high rate. Compound requirements are based upon a 12 mL application volume at a rate of 187 L/ha. Formulated compounds were applied to the plant material with an overhead Mandel track sprayer equipped with a 8002E nozzles calibrated to deliver 187 L/ha over an application area of 0.503 square meters at a spray height of […] above the average plant canopy height. Control plants were sprayed in the same manner with the solvent blank.
(§3) The treated plants and control plants were placed in a greenhouse as described above and watered by sub-irrigation to prevent wash-off of the test compounds. After 14 days, the condition of the test plants as compared with that of the untreated plants was determined visually and scored on a scale of 0 to 100 percent where 0 corresponds to no injury and 100 corresponds to complete kill

[2] = test system: Triticum aestivum (spring wheat); experiment: as above; type: in vivo; conditions: post-emergence, 336 h, post-emergent, after 14 days, 0 = no injury, 100 = complete kill, read-out: % Control TRZAS; for plant injury at 140 g/ha: 140 g ai/ha; for plant injury at 280 g/ha: 280 g ai/ha
Procedure: as §1, §2, §3

[3] = test system: Polygonum convolvulus (wild buckwheat); experiment: as above; type: in vivo; conditions: Fallopia convolvulus, post-emergence, 336 h, post-emergent, after 14 days, 0 = no injury, 100 = complete kill, read-out: % Control POLCO; for pest or weed control at 140 g/ha: 140 g ai/ha; for pest or weed control at 280 g/ha: 280 g ai/ha
Procedure: as §1, §2, §3

[4] = test system: Cirsium arvense (canada thistle); experiment: as above; type: in vivo; conditions: post-emergence, 336 h, post-emergent, after 14 days, 0 = no injury, 100 = complete kill, read-out: % Control CIRAR; for pest or weed control at 140 g/ha: 140 g ai/ha; for pest or weed control at 280 g/ha: 280 g ai/ha
Procedure: as §1, §2, §3

[5] = test system: Amaranthus retroflexus (pigweed); experiment: as above; type: in vivo; conditions: post-emergence, 336 h, post-emergent, after 14 days, 0 = no injury, 100 = complete kill, read-out: % Control AMARE; for pest or weed control at 140 g/ha: 140 g ai/ha; for pest or weed control at 280 g/ha: 280 g ai/ha
Procedure: as §1, §2, §3

Row | SMILES | pest or weed control at 140 g/ha [1] | plant injury at 140 g/ha [2] | pest or weed control at 140 g/ha [3] | pest or weed control at 140 g/ha [4] | pest or weed control at 140 g/ha [5] | melting point | pest or weed control at 280 g/ha [1] | plant injury at 280 g/ha [2] | pest or weed control at 280 g/ha [4] | pest or weed control at 280 g/ha [3] | pest or weed control at 280 g/ha [5]
1 | C=C(F)c1c(C(=O)O)nc(Cl)c(F)c1N [Compound 14, 4-amino-6-chloro-5-fluoro-3-(1-fluorovinyl)picolinic acid] | 90% | 0% | 90% | 100% | 50% | – | – | – | – | – | –
2 | C=Cc1c(C(=O)OC)nc(Cl)c(F)c1N [Compound 2, methyl 4-amino-6-chloro-5-fluoro-3-vinylpyridine-2-carboxylate] | 90% | 55% | – | 70% | 100% | 99 to 100 °C | – | – | – | – | –
3 | C/C=C\c1c(C(=O)O)nc(Cl)c(F)c1N [Compound 12, (Z)-4-amino-6-chloro-5-fluoro-3-(prop-1-en-l-yl)picolinic acid] | 100% | 10% | 85% | 80% | 100% | 141 to 143 °C | – | – | – | – | –
4 | C=Cc1c(C(=O)O)nc(Cl)c(F)c1N [Compound 9, 4-amino-6-chloro-5-fluoro-3-vinylpicolinic acid] | 100% | 50% | – | 100% | 100% | 164 to 166 °C | – | – | – | – | –
5 | C=C(F)c1c(C(=O)OC)nc(Cl)c(F)c1N [Compound 6, methyl 4-amino-6-chloro-5-fluoro-3-(1-fluorovinyl)picolinate] | 90% | 0% | 90% | 75% | 20% | 98 to 100 °C | – | – | – | – | –
6 | C/C=C\c1c(C(=O)OC)nc(Cl)c(F)c1N [Compound 4, (Z)-methyl 4-amino-6-chloro-5-fluoro-3-(prop-1-en-1-yl)picolinate] | 100% | 0% | 40% | 85% | 100% | – | – | – | – | – | –
7 | C[Si](C)(C)/C=C/c1c(C(=O)O)nc(Cl)c(F)c1N [Compound 15, (E)-4-amino-6-chloro-5-fluoro-3-(2-(trimethylsilyl)vinyl)picolinic acid] | 80% | 0% | – | 65% | – | 100 to 105 °C | – | – | – | – | –
8 | COC(=O)c1nc(Cl)c(F)c(N)c1/C=C/Cl [Compound 8, (E)-methyl 4-amino-6-chloro-3-(2-chlorovinyl)-5-fluoropicolinate] | 90% | 0% | 60% | 70% | 90% | 128 to 130 °C | – | – | – | – | –
9 | C/C=C/c1c(C(=O)OC)nc(Cl)c(F)c1N [Compound 5, (E)-methyl 4-amino-6-chloro-5-fluoro-3-(prop-1-en-1-yl)picolinate] | 90% | 0% | 20% | 65% | 0% | 107 to 109 °C | – | – | – | – | –
10 | C=Cc1c(N)cc(Cl)nc1C(=O)O [Compound 11, 4-amino-6-chloro-3-vinylpicolinic acid] | – | – | – | – | – | 146 to 148 °C | 100% | 50% | 10% | – | –
11 | C=Cc1c(N)cc(Cl)nc1C(=O)OC [Compound 3, methyl 4-amino-6-chloro-3-vinylpicolinate] | – | – | – | – | – | 53 to 54 °C | 100% | 20% | 100% | 100% | 100%
12 | Nc1c(F)c(Cl)nc(C(=O)O)c1/C=C/Cl [Compound 16, (E)-4-amino-6-chloro-3-(2-chlorovinyl)-5-fluoropicolinic acid] | 100% | 80% | 10% | 75% | 90% | 152 to 157 °C | – | – | – | – | –
13 | C=Cc1c(C(=O)O)nc(Cl)c(Cl)c1N [Compound 10, 4-amino-5,6-dichloro-3-vinylpicolinic acid] | – | – | – | – | – | 190 to 193 °C (dec.) | 100% | 20% | 100% | – | 100%
14 | C/C=C/c1c(C(=O)O)nc(Cl)c(F)c1N [Compound 13, (E)-4-amino-6-chloro-5-fluoro-3-(prop-1-en-l-yl)picolinic acid] | 85% | 30% | 60% | 70% | 60% | 153 to 155 °C | – | – | – | – | –
15 | COC(=O)c1nc(Cl)c(F)c(N)c1/C=C/[Si](C)(C)C [Compound 7, (E)-methyl 4-amino-6-chloro-5-fluoro-3-(2-(trimethylsilyl)vinyl)picolinate] | 100% | 0% | 50% | 55% | 90% | 103 to 105 °C | – | – | – | – | –
16 | C=Cc1c(C(=O)OC)nc(Cl)c(Cl)c1N [Compound 1, methyl 4-amino-5,6-dichloro-3-vinylpicolinate] | – | – | – | – | – | 96 to 97 °C | 100% | 0% | 95% | 100% | 100%
